The text below walks through data of patent US10294226B2, “Small molecule inhibitors of the JAK family of kinases” (Janssen Pharmaceutica NV, priority 2016, dated 2019).

The target of one data set is Tyk2-JH1JH2 (Homo sapiens (Human), UniProt P29597, C1142A/C936A). As to the kind of experiment: Enzymatic inhibition assay (HTMS). The format is biochemical. To be noted: 50 μM ATP; read-out: Tyk2_I_JH1JH2 IC50.
Another data set deals with JAK3-JH1JH2 (Homo sapiens (Human), UniProt P52333). In words: Enzymatic inhibition assay (HTMS). The format is biochemical. To be noted: 150 μM ATP; read-out: JAK3_I_JH1JH2 IC50.
JAK3-JH1JH2, sequence (P52333 512-1124): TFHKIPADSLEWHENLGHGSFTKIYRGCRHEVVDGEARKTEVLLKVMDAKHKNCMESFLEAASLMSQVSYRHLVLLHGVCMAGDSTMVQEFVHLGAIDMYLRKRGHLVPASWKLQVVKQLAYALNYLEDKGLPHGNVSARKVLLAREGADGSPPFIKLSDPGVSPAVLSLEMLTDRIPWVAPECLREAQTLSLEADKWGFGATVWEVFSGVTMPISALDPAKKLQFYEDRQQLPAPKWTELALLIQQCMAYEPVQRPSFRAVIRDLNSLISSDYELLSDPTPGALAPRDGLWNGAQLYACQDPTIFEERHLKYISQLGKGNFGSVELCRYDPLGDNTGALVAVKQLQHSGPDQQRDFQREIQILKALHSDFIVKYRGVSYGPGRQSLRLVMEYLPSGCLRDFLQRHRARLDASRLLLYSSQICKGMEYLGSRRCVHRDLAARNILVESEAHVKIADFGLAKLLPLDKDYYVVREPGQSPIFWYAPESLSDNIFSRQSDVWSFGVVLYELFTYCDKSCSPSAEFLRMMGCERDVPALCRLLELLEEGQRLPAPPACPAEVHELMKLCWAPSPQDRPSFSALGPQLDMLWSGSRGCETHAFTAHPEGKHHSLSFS
A further data set concerns the target JAK1-JH1JH2 (Homo sapiens (Human), UniProt P23458). In words: Enzymatic inhibition assay (HTMS). The format is biochemical. To be noted: 12.5 μM ATP; read-out: JAK1_JH1JH2 IC50.
The target in a further data set is JAK2-JH1JH2 (Homo sapiens (Human), UniProt O60674). As to the kind of experiment: Enzymatic inhibition assay (HTMS). The format is biochemical. Particulars: 30 μM ATP; read-out: JAK2_I_JH1JH2 IC50.
JAK2-JH1JH2, sequence (O60674 532-1132): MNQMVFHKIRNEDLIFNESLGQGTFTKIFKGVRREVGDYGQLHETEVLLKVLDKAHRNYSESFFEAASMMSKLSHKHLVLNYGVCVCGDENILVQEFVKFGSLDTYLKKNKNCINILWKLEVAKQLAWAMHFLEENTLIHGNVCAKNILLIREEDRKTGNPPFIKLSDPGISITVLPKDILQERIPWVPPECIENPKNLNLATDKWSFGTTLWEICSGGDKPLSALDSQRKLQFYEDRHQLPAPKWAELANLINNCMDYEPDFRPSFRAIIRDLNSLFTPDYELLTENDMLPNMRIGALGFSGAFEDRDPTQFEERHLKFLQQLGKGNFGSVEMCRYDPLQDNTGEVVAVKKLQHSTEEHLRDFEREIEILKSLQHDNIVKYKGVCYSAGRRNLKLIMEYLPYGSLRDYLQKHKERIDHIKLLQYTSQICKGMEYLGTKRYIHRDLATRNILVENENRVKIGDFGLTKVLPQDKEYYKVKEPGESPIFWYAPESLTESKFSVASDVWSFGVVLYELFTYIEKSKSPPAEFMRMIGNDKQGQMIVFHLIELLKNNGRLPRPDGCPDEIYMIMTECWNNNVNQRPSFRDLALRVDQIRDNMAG
For data set [1] the following is noted: pH 6.5.
The next data set relates to IFNα pSTAT4 (JAK1/TYK2). In words: IFNα pSTAT4 (JAK1/TYK2) cellular assay, AlphaLISA in PBMCs. The format is cell-based. To be noted: PBMC, IFNα 4 ng/mL. On the procedure: The AlphaLISA assay (based on Alpha Technology from PerkinElmer) was performed by first plating freshly thawed PBMCs (Biological Specialty Corporation) in 384-well plates at 100,000 cells per 6 μL per well in DMEM (Dulbecco's Modified Eagle Medium) containing 10% FBS (fetal bovine serum) and 1,000 I.U./mL penicillin and 1,000 μg/mL streptomycin. The cells were then treated with 2 μL/well of compounds diluted in DMSO at half-log titrated concentrations, with a highest test concentration of 10 μM and 0.5% final DMSO concentration, for thirty minutes at 37° C. Next, the cells were stimulated with 2 μL/well of IFNα (PBL Assay Science Cat. No. 11101-2) at 4 ng/mL for thirty minutes at 37° C. The cellular reactions were terminated by the addition of 2 μL/well of lysis buffer (PerkinElmer Cat. No. ALSU-PST4-A10K) followed by an incubation of five minutes at room temperature. 4 μL/well of acceptor mix (PerkinElmer Cat. No. ALSU-PST4-A10K) was added to the cells and incubated in the dark for one hour at room temperature. Then, 4 μL/well of donor mix (PerkinElmer Cat. No. ALSU-PST4-A10K) was added to the cells and incubated in the dark overnight at room temperature. Finally, the plates were read on a PerkinElmer EnVision for detection of the time-resolved fluorescence signal. The percentage of IFNα-dependent pSTAT4 inhibition was determined at the compound test concentrations; and for each compound, a dose curve was generated and the IC50 was calculated. Compound IC50 was calculated by nonlinear regression, sigmoidal dose response analysis of the half-log dilution titration curve of the compound concentration vs. Alpha signal. The term “Alpha” is defined in the immediately preceding cellular assay description.
For orientation: In Alpha technology, singlet oxygen from a donor bead excites a nearby acceptor bead.

The test system of the next data set is MDCK-MDR1 cell line. In words: MDCK-MDR1 permeability assay. The data set is classed as in vitro ADME.

As usually defined, the IC50 is the midpoint of a concentration-inhibition curve.

JAK1-JH1JH2, sequence (P23458 574-1154): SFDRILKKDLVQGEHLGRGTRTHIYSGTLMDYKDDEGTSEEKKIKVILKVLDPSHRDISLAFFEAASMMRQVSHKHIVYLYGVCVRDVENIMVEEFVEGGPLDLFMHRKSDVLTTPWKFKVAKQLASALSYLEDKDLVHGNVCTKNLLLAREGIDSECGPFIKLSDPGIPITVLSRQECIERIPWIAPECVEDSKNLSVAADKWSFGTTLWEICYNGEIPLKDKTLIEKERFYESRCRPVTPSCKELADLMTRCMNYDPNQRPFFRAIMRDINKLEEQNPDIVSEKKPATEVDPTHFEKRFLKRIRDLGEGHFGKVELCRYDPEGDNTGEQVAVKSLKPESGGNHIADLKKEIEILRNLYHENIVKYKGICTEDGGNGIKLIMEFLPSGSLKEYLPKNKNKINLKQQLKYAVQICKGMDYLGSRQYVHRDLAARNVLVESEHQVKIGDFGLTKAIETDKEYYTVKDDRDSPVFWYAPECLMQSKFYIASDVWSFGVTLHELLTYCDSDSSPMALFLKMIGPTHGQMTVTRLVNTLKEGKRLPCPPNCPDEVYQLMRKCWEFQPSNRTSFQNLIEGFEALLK
Tyk2-JH1JH2, sequence (P29597 580-1182 C936A/C1142A): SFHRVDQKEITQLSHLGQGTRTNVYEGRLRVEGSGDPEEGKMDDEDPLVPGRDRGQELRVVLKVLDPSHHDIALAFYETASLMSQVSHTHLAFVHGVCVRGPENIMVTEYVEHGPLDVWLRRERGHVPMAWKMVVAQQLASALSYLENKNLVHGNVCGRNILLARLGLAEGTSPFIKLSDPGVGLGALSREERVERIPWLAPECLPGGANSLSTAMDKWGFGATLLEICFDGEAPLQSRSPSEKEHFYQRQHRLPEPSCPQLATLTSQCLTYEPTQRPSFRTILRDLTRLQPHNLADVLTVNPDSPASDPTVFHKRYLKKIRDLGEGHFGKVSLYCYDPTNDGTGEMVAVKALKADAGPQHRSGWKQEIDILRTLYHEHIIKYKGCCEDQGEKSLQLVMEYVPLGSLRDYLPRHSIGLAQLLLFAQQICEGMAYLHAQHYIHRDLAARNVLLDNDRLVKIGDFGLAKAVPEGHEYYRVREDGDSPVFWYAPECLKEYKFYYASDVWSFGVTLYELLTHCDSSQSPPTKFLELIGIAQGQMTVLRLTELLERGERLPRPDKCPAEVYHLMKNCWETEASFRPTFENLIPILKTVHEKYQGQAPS

As for `N#CC[C@H]1CC[C@H](n2c(CC(=O)NCC3CCOCC3)nc3cnc4[nH]ccc4c32)CC1` [Ex. 6, 2-(1-((1r,4r)-4-(Cyanomethyl)cyclohexyl)-1,6-dihydroimidazo[4,5-d]pyrrolo[2,3-b]pyridin-2-yl)-N-((tetrahydro-2H-pyran-4-yl)methyl)acetamide], the IC50 at Tyk2-JH1JH2 came out at 1.1 nM; on JAK3-JH1JH2 it was 28.2 nM; on JAK1-JH1JH2, 0.1 nM; on JAK2-JH1JH2, 1.4 nM; with IFNα pSTAT4 (JAK1/TYK2) it was 39.4 nM. The same compound had an SIF solubility in data set [1] greater than 400 µM. The “MDCK-MDR1 Papp(B-A)” value in the data set with MDCK-MDR1 cell line (@ 5 μM, basolateral to apical) is on record as 2.6 10^−6 cm/sec. Further, the “Papp(B-A)/Papp(A-B) efflux ratio” value with MDCK-MDR1 cell line (MDCK-MDR1, @ 5 μM) was greater than 8.7.
